{"source": "patent US20240295544A1", "about": "(priority 2020, published 2024)", "test_system": "CMs"}
{"smiles": "CC(C)C[C@H](NC(=O)[C@H](Cc1ccccc1)NC(=O)c1cnccn1)B(O)O", "note": "[bortezomib]", "values": [{"measurement": "fragmentation frequency and severity compared with SARS-CoV-2", "setting": "human", "result": "much more infrequently and less severely than SARS-CoV-2"}, {"measurement": "induction of myofibril fragmentations in CMs", "setting": "no virus, bortezomib only at high doses (1 uM and 10 uM tested), doxorubicin 20 nM and 200 nM (Table 1A)", "result": "induced myofibril fragmentations"}]}
